Reference: ChEMBL document CHEMBL1201862, “PubChem BioAssay data set” (2004)
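These data come from cells grown in 96-well plates and exposed to compound for 48 hours at five concentrations. Abbreviation: GI50, concentration required for 50% inhibition of growth.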 Calls of active or inactive are those of the source. Rule as the data show it: active = GI50 up to about 1.1 µM and inactive = higher.

Experiments:
Test in all cases: NCI-60 cell line screen, 48 h
BT-549 = tested on: BT-549
M19-MEL = tested on: M19-MEL
KM-20L2 = tested on: KM-20L2
HOP-18 = tested on: HOP-18
DMS-273 = tested on: DMS-273
LXFL 529 = tested on: LXFL 529
DMS-114 = tested on: DMS-114
SNB-78 = tested on: SNB-78
RXF 631 = tested on: RXF 631

CC(=O)N1c2ccccc2C2=NN(C)C(=N)SC21 (stereo not given)
GI50 (BT-549): > 100 µM (inactive)

COc1cc2cc(C(=O)N3CC(COS(C)(=O)=O)c4c3cc([N+](=O)[O-])c3ccccc43)[nH]c2c(OC)c1OC (stereo not given)
GI50 (BT-549): > 31.6 µM (inactive)

CCOc1ccc(N/C(Cl)=C(Cl)\C(=C(\Nc2ccc(OCC)cc2)n2nnc3ccccc32)[N+](=O)[O-])cc1
GI50 (BT-549): 3.85 µM (inactive)

O=C1C=CC(=O)C2C1Cc1ccccc1C2c1ccccc1 (stereo not given)
GI50 (M19-MEL): 30.1 µM (inactive) | GI50 (KM-20L2): 50 µM (inactive) | GI50 (HOP-18): 53.6 µM (inactive) | GI50 (DMS-273): 58.6 µM (inactive) | GI50 (LXFL 529): 17.3 µM (inactive) | GI50 (DMS-114): 22.2 µM (inactive)

O=C(NN1C(=O)c2ccccc2C1=O)c1ccccc1Nc1ccccc1C(=O)NN1C(=O)c2ccccc2C1=O
GI50 (BT-549): > 100 µM (inactive)

CC1(C)CCC2=C(O1)/C(=N\Nc1ccc(F)cc1)c1ccccc1C2=O
GI50 (BT-549): 41.9 µM (inactive)

CCNc1nnc(-c2ccccc2Nc2ccccc2-c2nnc(NCC)s2)s1
GI50 (BT-549): 19.6 µM (inactive)

C=C(C)CNC(=S)N(N)c1ccc2ccccc2c1
GI50 (BT-549): > 100 µM (inactive)

O=C1Cc2ccccc2CCc2ccsc21
GI50 (M19-MEL): > 100 µM (inactive) | GI50 (KM-20L2): > 100 µM (inactive) | GI50 (HOP-18): 70.8 µM (inactive) | GI50 (SNB-78): > 100 µM (inactive) | GI50 (DMS-273): > 100 µM (inactive) | GI50 (LXFL 529): > 100 µM (inactive)

CN(C)CCNc1nc2ccccc2c2c1CCCC2
GI50 (BT-549): 33.1 µM (inactive)

CC(C)Sc1nncc(/C(N)=N/O)n1
GI50 (BT-549): > 100 µM (inactive)

COC1CC(C)C(OC)C2=CC(=O)C=C(NC(=O)/C(C)=C/C=C\C(C)C(OC(N)=O)/C(C)=C\C(C)C1OC)C2=O (stereo not given)
GI50 (M19-MEL): 0.441 µM (active) | GI50 (KM-20L2): 0.202 µM (active) | GI50 (HOP-18): 0.179 µM (active) | GI50 (SNB-78): 1.71 µM (inactive) | GI50 (DMS-273): 0.239 µM (active) | GI50 (LXFL 529): 0.191 µM (active) | GI50 (DMS-114): 0.403 µM (active)

Clc1ccccc1C(n1cc(Br)cn1)n1cc(Br)cn1
GI50 (M19-MEL): 14.4 µM (inactive) | GI50 (RXF 631): > 10 µM (inactive) | GI50 (SNB-78): > 100 µM (inactive) | GI50 (DMS-273): 17.8 µM (inactive) | GI50 (LXFL 529): 95.7 µM (inactive) | GI50 (DMS-114): 21.4 µM (inactive)

COC1OC(COC(=O)NCCCCC(=O)C(F)(F)F)C(O)C(O)C1O (stereo not given)
GI50 (BT-549): > 100 µM (inactive)

Cn1cccc(C(=O)c2ccccc2)c1=O
GI50 (M19-MEL): > 100 µM (inactive) | GI50 (KM-20L2): > 100 µM (inactive) | GI50 (SNB-78): > 100 µM (inactive) | GI50 (DMS-273): > 100 µM (inactive) | GI50 (LXFL 529): > 100 µM (inactive) | GI50 (DMS-114): > 100 µM (inactive)

CC(=O)Nc1ccc(NNc2cc(=O)n(C)c(=O)[nH]2)cc1
GI50 (BT-549): 13.1 µM (inactive)

CC(C)NC(=O)OCc1c(COC(=O)NC(C)C)c(-c2ccc(Cl)c(Cl)c2)n2c1CCC2
GI50 (M19-MEL): 33.7 µM (inactive) | GI50 (KM-20L2): 35.1 µM (inactive) | GI50 (HOP-18): > 61.2 µM (inactive) | GI50 (SNB-78): 21.2 µM (inactive) | GI50 (DMS-273): > 49.2 µM (inactive) | GI50 (LXFL 529): 3.6 µM (inactive) | GI50 (DMS-114): 33.7 µM (inactive) | GI50 (BT-549): > 100 µM (inactive)

Cc1cc(Cc2cc(C)c(NC(=O)C(=O)C3CCC4=C(SC5C=CC=CC5N4)C3=O)c(C(C)C)c2)cc(C(C)C)c1NC(=O)C(=O)C1CCC2=C(SC3C=CC=CC3N2)C1=O (stereo not given)
GI50 (BT-549): 38.4 µM (inactive)

COc1cc(/C=C2\N=C(c3ccccc3)N(c3nc4cc(C)c(C)cc4s3)C2=O)ccc1O
GI50 (BT-549): 46.3 µM (inactive)

C=CC(OC(C)=O)c1ccc(OC(=O)C(C)C)c(OC)c1 (stereo not given)
GI50 (BT-549): 6.79 µM (inactive)

CCN(CC)c1ccc2cc(-c3csc(C)n3)c(=O)oc2c1
GI50 (BT-549): 28.2 µM (inactive)

CCC/C=C\C=C\C1(NS(=O)(=O)c2ccc(C)cc2)CCC(C(C)(C)C)CC1 (stereo not given)
GI50 (M19-MEL): 17.1 µM (inactive) | GI50 (KM-20L2): 16.9 µM (inactive) | GI50 (HOP-18): 14.9 µM (inactive) | GI50 (SNB-78): 19.1 µM (inactive) | GI50 (DMS-273): 13.4 µM (inactive) | GI50 (LXFL 529): 25.2 µM (inactive)

CN(C)C(=S)Oc1ccc2ccc(=O)oc2c1
GI50 (BT-549): > 100 µM (inactive)

CC(=O)OCc1cncn1S(=O)(=O)c1ccc(C)cc1
GI50 (BT-549): > 83.4 µM (inactive)

COc1cc2c(cc1OC)C(C(=O)O)C(c1ccccc1)N(C)C2=O (stereo not given)
GI50 (M19-MEL): > 100 µM (inactive) | GI50 (KM-20L2): > 100 µM (inactive) | GI50 (HOP-18): > 100 µM (inactive) | GI50 (SNB-78): > 100 µM (inactive) | GI50 (LXFL 529): > 100 µM (inactive) | GI50 (DMS-114): > 100 µM (inactive)

COc1cc(C=O)cc(/C=N/n2c3ccccc3c3ccccc32)c1O
GI50 (BT-549): 2.94 µM (inactive)

[N-]=[N+]=NC1OC(=O)C(Cl)=C1N=P(c1ccccc1)(c1ccccc1)c1ccccc1 (stereo not given)
GI50 (BT-549): > 10 µM (inactive)

Cn1cc(NC(=O)c2cc(NC(=O)CNC(=N)N)cn2C)cc1C(=O)NCCC(=N)N [NETROPSIN CHLORIDE]
GI50 (BT-549): > 100 µM (inactive)

Cc1cccnc1N/C=C1\C(=O)NC(=O)N(C)C1=O
GI50 (BT-549): > 100 µM (inactive)

COC1C(CO)OC(n2c3c(Cl)cccc3c3c4c(c5c6cccc(Cl)c6[nH]c5c32)C(=O)NC4=O)C(O)C1O (stereo not given)
GI50 (M19-MEL): 0.274 µM (active) | GI50 (RXF 631): 0.249 µM (active) | GI50 (KM-20L2): 0.586 µM (active) | GI50 (SNB-78): 0.631 µM (active) | GI50 (DMS-273): 0.208 µM (active) | GI50 (LXFL 529): 0.33 µM (active) | GI50 (DMS-114): 0.258 µM (active) | GI50 (BT-549): 0.162 µM (active)

Cc1nn(C(=O)c2ccccc2O)c2c1C(c1ccc3ccccc3c1O)SC(=N)N2 (stereo not given)
GI50 (BT-549): > 10 µM (inactive)

CC(=O)Nc1ccc2c(c1)C(=O)c1cccc(F)c1-2
GI50 (BT-549): 4.45 µM (inactive)

Cn1c(=O)c2c(nc(NCCNc3nc4c(c(=O)n(C)c(=O)n4C)n3C)n2C)n(C)c1=O
GI50 (BT-549): > 100 µM (inactive)

C=C1CC23CCC4C(C)(C(=O)O)CCCC4(C)C2CCC1C3 (stereo not given)
GI50 (BT-549): 26.3 µM (inactive)

O=C(/C=C/c1ccc(O)c(O)c1)c1ccc(O)cc1O [BUTEIN]
GI50 (M19-MEL): 14 µM (inactive) | GI50 (KM-20L2): 17.1 µM (inactive) | GI50 (SNB-78): 20.8 µM (inactive) | GI50 (DMS-273): 10.6 µM (inactive) | GI50 (DMS-114): 2.47 µM (inactive) | GI50 (BT-549): 9.27 µM (inactive)
